Measurements taken from patent publication US20210353579A1, “HIGH PENETRATION COMPOSITIONS AND USES THEREOF” (Techfields Pharma Co., Ltd., priority 2006, published 2021).

Legend:
[1] = system: rat; conditions: rats;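 further: acute toxicity in rats expressed as LD50, determined for both prodrugs and their parent compounds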
Method: The acute toxicity of the prodrug compounds and parent compounds are measured by LD50 of rat.

[2] = pH 7
[3] = system: human skin tissue; conditions: pH 7.4
[4] = system: mice; assay: Analgesic activity, acetic acid writhing; type: in vivo; conditions: 30 min before acetic acid
Method: The prodrug compounds are administered either transdermally or orally. The parent compounds are administered orally. The number of writhing that occurred when mice are administered the acetic acid solution are counted, and the rate of inhibition based on the control group which was not pretreated with any test compounds is calculated. […] The A group is the control group.

[5] = system: sun damaged skin; assay: Treatment of sun damaged skin of subjects; type: in vivo; conditions: applied to sun damaged skin
Excerpt: Diethylaminoethyl acetylsalicylate.AcOH is applied to subjects' the sun damaged skin. […] 92% of the subjects treated experienced improved elasticity and firmness, and 95% experienced overall improvement in texture and tone. The results shown that HPPs of aspirin and related compounds may be used to treat skin conditions.

[6] = system: rats; assay: Antipyretic activity, E. coli suspension as pyrogen; type: in vivo; conditions: in °C (unit assumed)
Method: Rats are administered with sterilized E. coli suspension as a pyrogen. Each group of rats are administered with a prodrug compounds or parent compounds at a dosage specified below. The prodrug compounds are administered either orally or transdermally. The parent compounds are administered orally.

[7] = Plasma levels after transdermal administration to hairless mice; type: in vivo; conditions: mouse, in vivo
Method: Tested compounds (20% solution or suspension in 1 mL isopropanol) are administered transdermally to the skin of intact hairless mice. The plasma levels of the parent compounds are determined by HPLC.

[8] = system: C57/BL6 mice, MPTP; assay: MPTP Parkinson's disease mice: DA, NA, 5-HT in the striatum; type: in vivo, mouse
Excerpt: (§1) The mice were divided into 2 groups.

[9] = system: spontaneously hypertensive and stroke prone rats (SLAC/SHRSP); assay: Alleviation of the effects of strokes (treatment from 24 hours after operation); type: in vivo, rat; conditions: 50 mg/kg twice per day on the back from 24 hours after the operation
Method: (§2) Thrombosis was induced by electrical stimulation (1 mA for 3 minutes) of the carotid artery in spontaneously hypertensive and stroke prone rats (SLAC/SHRSP) by using a thrombosis formation instrument (YLS-14A, Shandong Academy of Medical Sciences, Shandong, China). The rats (Spragu Dawley, 25 weeks old, 380-450 g) were divided into 3 groups randomly, group A is the control group, groups B and C are aspirinamine-treated group. In group B, 100 mg/kg of aspirinamine citric acid salt (10% in water) was applied to the rats' back skin (˜5 cm^2, fur was cut off) 2 hour before the operation and 1 hour after the operation, then 50 mg/kg of the drug was applied to the back of rats twice per day. In group C, 50 mg/kg of aspirinamine was applied to the back of rats twice per day starting from 24 hours after the operation. The recovery of motor functions of rats was evaluated every day. The operation process is outlined in the Method section in the supporting online materials. […] The HPP of aspirin is the first drug which can reverses paralysis from post-stroke.

[10] = system: spontaneously hypertensive and stroke prone rats (SLAC/SHRSP); assay: Anti-stroke activity, carotid thrombosis by electrical stimulation (treated before operation); type: in vivo, rat; conditions: 100 mg/kg transdermally 2 hour before and 1 hour after operation, then 50 mg/kg twice per day
Method: as §2

[11] = system: C57/BL6 mice, MPTP; assay: MPTP Parkinson's disease mice: GSH and MDA in the substantia nigra; type: in vivo, mouse; conditions: MPTP + 30 mg/kg transdermally 14 days
Excerpt: as §1

[12] = system: C57/BL6 mice, MPTP; assay: MPTP Parkinson's disease mice: GABA and Glu in substantia nigra and striatum
Method: Group A mice were i.p. injected 0.4% sodium carboxymethylcellulos (15 ml/kg per day) for 7 days. Group B and C mice were i.p. injected N-methyl-4-phenyl-1,2,3,6-tetrahydropyridine (MPTP, 30 mg/kg per day) for 7 days. The mice were divided into 2 groups. […] All mice were killed after the last treatment and the brain tissues were quickly frozen at −80° C. […] The contents of GABA and Glu in the striatum and SN were shown by high performance amino acid auto-analyser.

[13] = system: Tg2576 mouse; assay: Tg2576 mice: radial-arm water-maze test of working memory; type: in vivo; conditions: 50 mg/kg, 2 months
Method: To determine if the transdermal administration of diethylaminopropyl acetylsalicylate.HCl has beneficial functional consequences, we tested 2 months of diethylaminopropyl acetylsalicylate.HCl (50 mg/kg) in the transgenic model for Alzheimer's disease in which mice develop learning deficits as amyloid accumulates. […] In the diethylaminopropyl acetylsalicylate.HCl (50 mg/kg) treated group, all mice performed superbly on the radial-arm water-maze test of working memory and untreated transgenic mice show memory deficits. […] This therapeutic approach can thus prevent and treat Alzheimer's dementia.

[14] = system: rats; assay: Spinal cord injury, recovery from paralysis; type: in vivo, rat; conditions: 5 mg in 0.2 ml water on the area of injury twice per day for 1 months
Method: A group of rat was anesthetized with chloral hydrate, the spinal cord of rats was hit to induce spinal cord injury. At the next day, 20 completely paralyzed rats were divided into 2 groups. […] In group B (n=10), 5 mg of diethylaminopropyl acetylsalicylate.HCl in 0.2 ml of pure water was applied to the area of injury (˜2×3 cm^2) twice per day for 1 months. After the treatment, all rats (10/10) in control group (group A) were still completely paralyzed. We were excited to see that all rats (10/10) in the diethylaminopropyl acetylsalicylate.HCl treated group (group B) could walk. 4 Rats of them were completely normal and other 6 rats walked more slowly and less confidently than their injury. This therapeutic approach can treat spinal cord injury in humans and animals.

[15] = system: β-amyloid (Aβ); assay: Tg2576 mouse model of Alzheimer disease: Aβ and senile plaques; type: in vivo
Excerpt: For many years, efforts have been focused on the development of inhibitors of β-amyloid (Aβ) formation and its related neurotoxic effects. To determine the effect of diethylaminopropyl acetylsalicylate. HCl on in vivo Aβ accumulation, we administered transdermally diethylaminopropyl acetylsalicylate. […] Three-month-old female transgenic mice overexpressing the human APP gene containing the Swedish mutation that causes familial AD (Tg2576 line) were used for testing the effects of diethylaminopropyl acetylsalicylate.HCl in vivo. 20 Tg2576 mice were divided into 2 groups. […] In group B (n=10), 50 mg/kg of diethylaminopropyl acetylsalicylate.HCl in 0.2 ml of pure water was applied to the back of mouse once per day for 2 months. Then the animals were killed and their brains were removed for analysis. For Aβ analysis, hemibrains were dounce homogenized in 70% formic acid at 150 mg tissue/ml formic acid solution. Homogenates were transferred to a chilled ultracentrifuge and were then spun at 100,000 g for 1 h at 4° C. Supernatants were collected and neutralized with formic acid neutralization buffer (1.0 M Tris base, 0.5 M NaH2PO4, and 0.05% NaN3; 1:20) for Aβ quantitation by ELISA. Aβ40 and Aβ42 were assayed by ELISA. Four individual experiments were performed. To compare across studies, the values for an individual study were normalized using the values obtained for the control animals included in each study. Values represent the mean±SE for the n number shown, after normalizing.

[16] = MPTP mice, 30 mg/kg transdermally to the neck once per day for 14 days
[17] = MPTP mice, 30 mg/kg transdermally once per day for 14 days
[18] = 50 mg/kg transdermally, 2 months

SMILES: CCN(CC)CCOC(=O)c1ccccc1OC(C)=O [diethylaminoethyl acetylsalicylate.AcOH]
- LD50 of HPP [1]: 2300 mg/kg
- Solubility of HPP [2]: >300 mg/mL
- In vitro penetration rate (apparent flux), prodrug compounds [3]: 1000 μg/cm^2/h
- % (rate of writhing inhibition) ([4]; 50 mg/kg orally): 54%
- No. of Writhing ([4]; 50 mg/kg orally): 15.4
- % (rate of writhing inhibition) ([4]; 50 mg/kg transdermally): 56%
- No. of Writhing ([4]; 50 mg/kg transdermally): 14.5
- % (rate of writhing inhibition) ([4]; 100 mg/kg orally): 67%
- No. of Writhing ([4]; 100 mg/kg orally): 11.0
- % (rate of writhing inhibition) ([4]; 100 mg/kg transdermally): 70%
- No. of Writhing ([4]; 100 mg/kg transdermally): 10.1
- reduction in roughness [5]: 89%
- reduction in the appearance of fine lines and wrinkles [5]: 85%
- reduction in the look of freckles, moles, dark spots, and other discolorations [5]: 85%
- reduction of acne [5]: 97%
- subjects that experienced overall improvement in texture and tone [5]: 95%
- subjects treated that experienced improved elasticity and firmness [5]: 92%
- body temperature, t = 0 min ([6]; 100 mg/kg orally): 37.25 ± 0.09
- body temperature, t = 90 min ([6]; 100 mg/kg orally): 36.40 ± 0.15
- body temperature, t = 180 min ([6]; 100 mg/kg orally): 36.50 ± 0.09
- body temperature, t = 270 min ([6]; 100 mg/kg orally): 36.40 ± 0.15
- body temperature, t = 0 min ([6]; 100 mg/kg transdermally): 37.19 ± 0.07
- body temperature, t = 90 min ([6]; 100 mg/kg transdermally): 36.40 ± 0.05
- body temperature, t = 180 min ([6]; 100 mg/kg transdermally): 36.38 ± 0.05
- body temperature, t = 270 min ([6]; 100 mg/kg transdermally): 36.40 ± 0.15
- body temperature, t = 0 min ([6]; 150 mg/kg orally): 37.18 ± 0.07
- body temperature, t = 90 min ([6]; 150 mg/kg orally): 36.30 ± 0.15
- body temperature, t = 180 min ([6]; 150 mg/kg orally): 36.28 ± 0.07
- body temperature, t = 270 min ([6]; 150 mg/kg orally): 36.20 ± 0.09
- body temperature, t = 0 min ([6]; 150 mg/kg transdermally): 37.33 ± 0.05
- body temperature, t = 90 min ([6]; 150 mg/kg transdermally): 36.27 ± 0.15
- body temperature, t = 180 min ([6]; 150 mg/kg transdermally): 36.26 ± 0.07
- body temperature, t = 270 min ([6]; 150 mg/kg transdermally): 36.22 ± 0.08
- Peak plasma concentration of parent compound after prodrug compound [7]: 30 mg/L
- t, time to peak plasma level of parent compound after prodrug compound [7]: 20 min

SMILES: CCN(CC)CCOC(=O)c1ccccc1OC(C)=O.O=C(O)CC(O)(CC(=O)O)C(=O)O [diethylaminoethyl acetylsalicylate.citric acid]
- DA, NA, and 5-HT contents in the striatum ([8]; 30 mg/kg transdermally, vs MPTP model group, P<0.05): increased
- 5-HT concentration in the striatum [8, 16]: 302 ± 29
- DA concentration in the striatum [8, 16]: 817 ± 89 μg/g wet tissue
- NA concentration in the striatum [8, 16]: 602 ± 55
- Stroke-free rats (3 hrs) ([9]; 3 hrs after operation (before treatment start)): 0/10
- Stroke-free rats (2 day) ([9]; 2 day): 4/10
- Weight Loss (3 days) ([9]; 3 days): −13 +/− 7%
- Stroke-free rats (7 day) ([9]; 7 day): 9/10
- Weight Loss (7 days) ([9]; 7 days): −7 +/− 4%
- Stroke-free rats (14 days) ([9]; 14 days): 10/10
- Weight Loss (14 days) ([9]; 14 days): −4 +/− 2%
- Stroke-free rats (2 hours) [10]: 8/10
- Stroke-free rats (1 day) [10]: 9/10
- Stroke-free rats (7 days) [10]: 10/10
- MDA in the substantia nigra ([11]; control 13 ± 3, MPTP + water 21 ± 4): 14 ± 4 μmol/g protein
- GSH in the substantia nigra ([11]; control 152 ± 12, MPTP + water 101 ± 17): 143 ± 13 μg/g protein
- MPTP-induced changes of GABA in striatum and SN ([12]; 30 mg/kg): reversed
- GABA concentration, Striatum [12, 17]: 4.9 ± 1.6 μmol/g wet tissue
- GABA concentration, Substantia nigra [12, 17]: 4.7 ± 0.5 μmol/g wet tissue
- Glu concentration, Striatum [12, 17]: 26.5 ± 2.7
- Glu concentration, Substantia nigra [12, 17]: 29.5 ± 2.4

SMILES: CCN(CC)CCCOC(=O)c1ccccc1OC(C)=O.Cl [diethylaminopropyl acetylsalicylate.HCl]
- cognitive performance, radial-arm water-maze test of working memory [13]: performed as well as nontransgenic mice
- rats completely normal after treatment [14]: 4
- rats that could walk after treatment [14]: 10/10
- reduction in the number of senile plaques ([15]; 50 mg/kg transdermally over 2 months): 70-80%
- reduction in Aβ42 concentration in the brain [15, 18]: 70%
- reduction of the amount of Aβ detected in the brains [15, 18]: 70%
- Aß42 concentration ([15]; Tg2576 mice, 50 mg/kg transdermally once per day for 2 months): 2.3 ± 0.3 pmol/g tissue
